Experimental data: patent publication US11213512B2, “Bis-amino acid based compound and use thereof” (THE CURATORS OF THE UNIVERSITY OF MISSOURI, priority 2016, dated 2022)
Like-named read-outs stand apart in the source and are kept apart here.

Legend:
[1] = test system: Tet^R E. coli; experiment: Recovery of tetracycline activity (co-administration, MIC of tetracycline); format: cell-based, Escherichia coli
Description: (§1) MIC experiments were performed as described in the Clinical and Laboratory Standards Institute (CLSI) standard microdilution protocols. Bacteria was grown overnight from one CFU in media without antibiotics. Tet^R E. coli was grown in media containing 100 μg/mL Ampicillin. On the day of experiment, bacteria were knocked back to O.D. 600 nm=0.550 in the same media. These exponential phase bacteria were then diluted in antibiotics-free media to get […]. In a 96-well plate either L. B. Miller or MHII media was added followed by serially diluted compounds 1-11, tetracycline, or ampicillin. All the tryptophan based compounds were dissolved in DMSO and the final concentration of DMSO in each well was kept constant at 0.5% (v/v).
(§2) For the combination experiments, first, the BT or control was added to the media in the well followed by the antibiotics. The contents of the well were mixed before adding 20 μL of bacteria to get 4×10^5 CFU/mL per well. The plates were incubated at 37° C., 200 RPM for 24 hours before collecting results on the Biotek Cytation 3 plate reader. No more than three plates were stacked on top of each other at a time. Optical density of the wells was determined at λ=600 nm. Cells alone were considered as 0% inhibition and media alone was considered as 100% inhibition. Any inhibition greater than 80% was considered as the MIC. The results were reproduced three times before reporting.
First, MICs were determined for compounds 2, 3, 5, 6, 7, and 10 against Tet^R E. coli. Compounds 6 (para-Ph) and 7 (n-C3) were also included as controls. The MICs against Tet^R E. coli were refined compared to the power series and are reported as a range in Table 1 above. The MICs of tetracycline and ampicillin against Tet^R E. coli were 900±100 μM and >1000 μM, respectively. For comparison, the MIC for tetracycline against non-resistant E. coli K-12 is ˜3 μM. Ampicillin was used to maintain selective pressure for the expression of pBR322 plasmid. Ampicillin was omitted from experiments that contained tetracycline. Next, the MIC of tetracycline was determined when co-administered with 2, 3, 5, 6, 7, or 10. The results are represented as the MIC of tetracycline in the presence of the indicated BTs. The fold-recovery was determined by dividing the MIC of tetracycline when used alone by the MIC of tetracycline determined in the presence of the compounds.
The fractional inhibitory concentration (FIC) is often used as a measure of synergism or antagonism in comparing two or more compounds (Berenbaum, Pharmacol. Rev. 1989, 41, 93-141). The FIC is the sum of the fraction of the MIC for each compound used. Synergy is defined broadly as FIC<1, or more conservatively as FIC≤0.5. Under the broad definition, all compounds tested can be said to have at least moderate synergy with tetracycline. All arene-based compounds fit the more conservative definition of synergy with FIC values of 0.5 or less at the tested concentrations.

[2] = test system: S. aureus (ATCC Accession No. 29213); experiment: MIC, CLSI/NCCLS broth microdilution; format: cell-based, Staphylococcus aureus; details: Staphylococcus aureus, read-out: Minimal Inhibitory Concentration (MIC) S. aureus
Description: Two different strains of E. coli (Gram-negative) were used. The laboratory strain of E. coli, K-12 (ATCC Accession No. 700926), was used for preliminary MIC determinations. The tetracycline resistant strain of E. coli (Tet^R) was prepared by transforming competent JM109 E. coli (Promega) with the pBR322 plasmid (Carolina Biologicals) using the manufacturers protocol. This plasmid contains two resistance genes: the tetA gene expresses the tetracycline resistance TetA efflux pump (Sapunaric and Levy, Microbiol. 2005, 151, 2315-2322) and the amp^R gene expresses a β-lactamase enzyme (Bolivar, et al; Gene 1977, 2, 95-113) that cleaves the four membered ring of penicillin derivatives. The resulting E. coli, which we designate Tet^R E. coli, is both tetracycline and ampicillin resistant. The TetA efflux pump belongs to the major facilitator superfamily (MFS), spans the cytoplasmic membrane, and transports tetracycline from the cell cytoplasm to the periplasmic space (Thanassi, et al., J. Bacteriol. 1995, 177, 998-1007). This active efflux utilizes the proton gradient as an energy source (Levy, Antimicrob. Agents Chemother. 1992, 36, 695-703). One Gram-positive strain, S. aureus (ATCC Accession No. 29213), used for MIC study expresses the MFS type NorA efflux pump and is methicillin sensitive. MFS type efflux pumps are clinically relevant for resistance in both Gram-positive and Gram-negative bacteria (Sun, et al., Biochem. Biophys. Res. Commun. 2014, 453, 254-267). A Staphylococcus aureus 1199B strain that overexpresses the NorA efflux pump was also used to conduct checkerboard experiments (see, Example 8 below). This strain of S. aureus 1199B is resistant to both norfloxacin and ethidium bromide.
K-12 E. coli and S. aureus were acquired from ATCC. The S. aureus strain was used in the BSL-2 facility. K-12 E. coli was grown in L. B. Miller media (Sigma-Aldrich) and S. aureus was grown in cation adjusted MHII media (Sigma-Aldrich). Tet^R E. coli was grown in L. B. Miller media containing 100 μg/mL Ampicillin.
as §1, §2
All minimum inhibitory concentration (MIC) values for compounds 1-11 were determined according to the methods prescribed by the National Committee for Clinical Laboratory Standards (NCCLS, Methods for Dilution Antimicrobial Susceptibility Tests for Bacteria that grow aerobically; National Committee for Clinical Laboratory Standards 2000, 5th Edition, M7-A5). […]

[3] = compound at 5 μM (single comparison concentration)
[4] = compound at ¼ MIC (2: 12, 3: 7, 5: 14, 6: 30, 7: 30, 10: 2.5 μM)
[5] = compound at ¼ MIC (2: 12, 3: 7, 5: 14, 6: 30, 7: 30, 10: 2.5 μM), tetracycline alone 900 μM
[6] = compound at ½ MIC (2: 24, 3: 14, 5: 28, 6: 60, 7: 60, 10: 5 μM)
[7] = compound at ½ MIC (2: 24, 3: 14, 5: 28, 6: 60, 7: 60, 10: 5 μM), tetracycline alone 900 μM
[8] = compound at 14 μM (single comparison concentration)
[9] = ATCC29213, >80% growth inhibition, 24 h, 37° C.

Compound | FIC (fractional inhibitory concentration) with tetracycline [1, 3] | Fold Recovery of tetracycline activity [1, 3] | MIC [Tet] (tetracycline in the presence of the compound) [1, 3] [µM] | FIC (fractional inhibitory concentration) with tetracycline [1, 4] | MIC [Tet] (tetracycline in the presence of the compound) [1, 4] [µM] | Fold Recovery of tetracycline activity [1, 5] | FIC (fractional inhibitory concentration) with tetracycline [1, 6] | MIC [Tet] (tetracycline in the presence of the compound) [1, 6] [µM] | Fold Recovery of tetracycline activity [1, 7] | MIC ([2]; ATCC29213, 24 h) [µM] | FIC (fractional inhibitory concentration) with tetracycline [1, 8] | Fold Recovery of tetracycline activity [1, 8] | MIC [Tet] (tetracycline in the presence of the compound) [1, 8] [µM] | MIC [2, 9] [µM] | FIC (synergy with tetracycline) ([1]; at the tested concentrations, synergy FIC<1 (broad) or FIC≤0.5 (conservative)) | recovery of tetracycline activity ([1]; compound at ½ and ¼ of its MIC) [fold]
Cl.Cl.N[C@@H](Cc1c[nH]c2ccccc12)C(=O)NCCCNC(=O)[C@@H](N)Cc1c[nH]c2ccccc12 [Compound 7, (2S,2′S)-1,1′-(Propane-1,3-diylbis(azanediyl))bis(3-(1H-indol-3-yl)-1-oxopropan-2-aminium) chloride] | 0.54 | 2-fold | 450 | 0.38 | 112.5 | 8-fold | 0.63 | 112.5 | 8-fold | > 128 | – | – | – | – | – | –
Cl.Cl.N[C@@H](Cc1c[nH]c2ccccc12)C(=O)Nc1ccc(NC(=O)[C@@H](N)Cc2c[nH]c3ccccc23)cc1 [Compound 6, (2S,2′S)-1,1′-(1,4-Phenylenebis(azanediyl))bis(3-(1H-indol-3-yl)-1-oxopropan-2-aminium) chloride] | – | – | – | 0.50 | 225 | 4-fold | 0.63 | 112.5 | 8-fold | – | 0.62 | 2-fold | 450 | 128 | – | –
Cl.Cl.N[C@H](Cc1c[nH]c2ccccc12)C(=O)Nc1cccc(NC(=O)[C@H](N)Cc2c[nH]c3ccccc23)c1 [Compound 3, (2R,2′R)-1,1′-(1,3-Phenylenebis(azanediyl))bis(3-(1H-indol-3-yl)-1-oxopropan-2-aminium) chloride] | – | – | – | 0.50 | 225 | 4-fold | 0.63 | 112.5 | 8-fold | – | – | – | – | 32 | – | –
Cl.Cl.N[C@@H](Cc1c[nH]c2ccccc12)C(=O)Nc1cccc(NC(=O)[C@@H](N)Cc2c[nH]c3ccccc23)c1 [Compound 2, (2S,2′S)-1,1′-(1,3-Phenylenebis(azanediyl))bis(3-(1H-indol-3-yl)-1-oxopropan-2-aminium) chloride] | – | – | – | 0.38 | 112.5 | 8-fold | 0.56 | 56.25 | 16-fold | – | 0.42 | 8-fold | 112.5 | 32 | – | –
Cl.Cl.N[C@H](Cc1c[nH]c2ccccc12)C(=O)NCCCCCCCCCCCCNC(=O)[C@@H](N)Cc1c[nH]c2ccccc12 [Compound 10, (S)-1-((12-((R)-2-Ammonio-3-(1H-indol-3-yl)propanamido)dodecyl)amino)-3-(1H-indol-3-yl)-1-oxopropan-2-aminium chloride] | – | – | – | 0.75 | 450 | 2-fold | 0.75 | 225 | 4-fold | – | – | – | – | 4 | ≥ 0.75 | 2 to 4
Cl.Cl.N[C@@H](Cc1c[nH]c2ccccc12)C(=O)Nc1ccccc1NC(=O)[C@@H](N)Cc1c[nH]c2ccccc12 [Compound 5, (2S,2′S)-1,1′-(1,2-Phenylenebis(azanediyl))bis(3-(1H-indol-3-yl)-1-oxopropan-2-aminium) chloride] | – | – | – | 0.50 | 225 | 4-fold | 0.63 | 112.5 | 8-fold | – | – | – | – | 32 | – | –
